Common to all, as to assay type: cell-based
One assay concerns the target T1, CK1α (Homo sapiens, UniProt P48729+Q96SW2).
T1 construct: endogenous in cells; host or cells: MV-4-11
Briefly: Western blot CK1α degradation assay in MV-4-11 cells. Particulars: 6-8 hours. On the procedure: (§1) MV-4-11 cells were grown in RPMI 1640 media supplemented with 10% fetal bovine serum, streptomycin and penicillin.
(§2) Cells were cultured at approximately 10^6 cells per mL and incubated in DMSO or the indicated compound for 6-8 hours. Whole cell extracts were prepared using RIPA buffer according to manufacturer's protocol (Pierce). Briefly, 3×10^6 cells were washed once in PBS, the cell pellets were resuspended in RIPA buffer and allowed to incubate for 15 minutes on ice. Cells debris was removed by centrifugation and the cleared whole cell lysates were transferred to new tubes for further analysis.
(§3) For Western blot analysis, whole cell protein extracts were separated on 4-12% SDS-polyacrylamide gels, transferred to nitrocellulose and probed with the indicated primary antibodies. Membranes were subsequently washed and probed with the appropriate IRDye secondary antibodies (LI-COR). The signal was detected using the Odyssey Imaging System (LI-COR).
(§4) The following antibodies were used in these studies: Anti-eRF3/GSPT1: Abcam, ab126090 (Cambridge, Mass.); Anti-Ikaros: Abcam, ab191394 (Cambridge, Mass.); Anti-CK1α: Abcam, ab108296 (Cambridge, Mass.); β-actin (8H10D10) mouse monoclonal antibody: Cell Signaling Technology, #3700 (Danvers, Mass.); IRDye 680RD Goat anti-rabbit antibody: LI-COR, 926-68071 (Lincoln, Nebr.); IRDye 800CW Goat anti-mouse antibody: LI-COR, 926-32210 (Lincoln, Nebr.).
(§5) In each of Tables 1-3, the % degradation values are reported as “A”, “B”, “C”, or “D.” “A” represents a % degradation value of less than 25% (value<25%); “B” represents a % degradation value of equal to or more than 25% and less than 50% (25%≤value<50%); “C” represents a % degradation value of equal to or more than 50% and less than 75% (50%≤value<75%); and “D” represents a % degradation value of equal to or more than 75% (value≥75%).

In the next assay the test system is MOLM-13 cells. Briefly: MOLM-13 cell viability assay (CellTiter-Glo 2, 3 days, 2500 cells/well). As to conditions: Homo sapiens, MOLM-13, 72 h, percentage of DMSO control. On the procedure:
MOLM-13 cells were cultured in RPMI 1640 media supplemented with 10% fetal bovine serum, streptomycin and penicillin, and were plated in white walled 96-well plates at 2500 cells/well. Cells were incubated in DMSO (control) or the indicated compound for 3 days at 37° C. and 5% CO2. Following the incubation period, 100 μL of CellTiterGlow2 (CTG2) reagent (CellTiter-Glo®2 Luminescent Cell Viability Assay, Promega (Madison, Wis.)) was added to each well. Following a 10 minutes incubation with shaking, luminescence was measured using the EnVision Multimode plate reader.
The MOLM-13 cell viability values, measured as percentages of the DMSO control, are reported in Table 8 as “A”, “B”, “C”, or “D.” “A” represents a % viability value of less than 40% (value<40%). “B” represents a % viability value of equal to or more than 40% and less than 60% (40%≤value<60%). “C” represents a % viability value of equal to or more than 60% and less than 90% (60%≤value<90%). “D” represents a % viability value of equal or more than 90% (value≥90%).
(Cellular ATP, detected with luciferase, serves as a proxy for viable cell number.)

The next assay has as its target T2, IKAROS (Homo sapiens, UniProt Q13422+Q96SW2).
T2 construct: endogenous in cells; host or cells: MV-4-11
Briefly: Western blot IKAROS degradation assay in MV-4-11 cells. Particulars: 6-8 hours. As to the method:
as §1, §2, §3, §4, §5
In general terms: Immunoblotting shows a protein as a band on a membrane.

Another assay deals with IL-2. Briefly: IL-2 fold-change assay, anti-CD3 stimulated PBMCs, Mesoscale. As to conditions: Homo sapiens, PBMC, 24 h, fold difference from the DMSO control. On the procedure:
For the IL-2 analysis, 96 well plates were precoated with 1 μg/mL anti-human CD3 antibody (OKT3, eBioscience Inc., San Diego, Calif.). After washing with PBS, the indicated compound was added (50 μL/well) followed by PBMCs diluted at 3-4 million cells/mL (150 μL/well). Plates were incubated for 24 h and the supernatants collected for Mesoscale IL-2 analysis. IL-2 activity is measured as fold difference from the DMSO control.
In Table 7, the fold-change values are reported as “A”, “B”, “C”, or “D”. “A” represents a fold-change value of equal to or less than 1 (value≤1); “B” represents a fold-change value of more than 1 and equal to or less than 2 (1<value≤2); “C” represents a fold-change value of more than 2 and equal to or less than 3 (2<value≤3); and “D” represents a fold-change value of more than 3 (value>3).

In another assay the test system is IL-1β. Briefly: IL-1β inhibition assay, LPS-induced PBMCs or CD14+ monocytes, Meso Scale. As to conditions: 100 ng/mL LPS 18-24 h. As to the method: (§6) Either frozen primary blood mononuclear cells (PBMCs) or frozen CD14+ mobilized peripheral blood monocytes were purchased from AllCells (PB003F, Normal Peripheral Blood MNC (Alameda, Calif.)). Cells were quick thawed, washed 1-time with RPMI-1640 (10% FBS/1% Pen-Strep) and plated in 96 well plates at 200,000 cells per well. Cells were pretreated with DMSO only or with the indicated compound for 1 h and then induced with 100 ng/mL lipopolysaccharide (LPS) for 18-24 h. The supernatant was analyzed for IL-1β, IL-6, and TNFα, using Meso Scale assay according to manufacturer's protocol. The negative control wells were treated with DMSO.

The test system of another assay is TNFα. Briefly: TNF-α inhibition assay, LPS-induced PBMCs or CD14+ monocytes, Meso Scale. Particulars: 100 ng/mL LPS 18-24 h. On the procedure:
as §6

The target in the next assay is T3, GSPT1 (Homo sapiens, UniProt P15170+Q96SW2).
T3 construct: whole cell protein extracts were separated on 4-12% SDS-polyacrylamide gels; endogenous in cells; host or cells: MV-4-11
Briefly: Western blot GSPT1 degradation assay in MV-4-11 cells. As to conditions: 1 μM, MV-4-11 cells, 6-8 hours. As to the method: as §1, §2, §3, §4, §5

Each structure is given as a SMILES string.

T1 sequence (P48729 whole entry): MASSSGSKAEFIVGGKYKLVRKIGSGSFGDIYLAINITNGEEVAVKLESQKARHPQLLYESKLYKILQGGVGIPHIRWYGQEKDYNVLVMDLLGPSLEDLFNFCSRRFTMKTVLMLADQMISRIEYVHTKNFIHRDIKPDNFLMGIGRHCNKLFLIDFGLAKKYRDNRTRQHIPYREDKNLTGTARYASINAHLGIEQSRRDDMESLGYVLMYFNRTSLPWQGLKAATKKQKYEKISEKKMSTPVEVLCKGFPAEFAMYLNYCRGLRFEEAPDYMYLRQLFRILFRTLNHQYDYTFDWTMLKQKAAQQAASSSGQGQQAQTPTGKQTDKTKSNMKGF
T1 sequence (Q96SW2 whole entry): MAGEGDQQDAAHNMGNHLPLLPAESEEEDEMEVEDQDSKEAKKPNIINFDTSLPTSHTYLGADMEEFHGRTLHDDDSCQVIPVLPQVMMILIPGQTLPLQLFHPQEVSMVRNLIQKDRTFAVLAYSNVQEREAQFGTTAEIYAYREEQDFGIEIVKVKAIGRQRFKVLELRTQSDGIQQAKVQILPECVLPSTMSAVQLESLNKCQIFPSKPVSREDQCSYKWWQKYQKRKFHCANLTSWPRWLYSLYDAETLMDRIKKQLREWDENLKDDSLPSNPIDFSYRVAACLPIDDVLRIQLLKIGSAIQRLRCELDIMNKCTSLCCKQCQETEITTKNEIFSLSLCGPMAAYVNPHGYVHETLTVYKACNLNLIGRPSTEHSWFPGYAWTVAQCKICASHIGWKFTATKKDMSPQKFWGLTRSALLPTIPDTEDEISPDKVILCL
T1 sequence (Q16531 whole entry partner): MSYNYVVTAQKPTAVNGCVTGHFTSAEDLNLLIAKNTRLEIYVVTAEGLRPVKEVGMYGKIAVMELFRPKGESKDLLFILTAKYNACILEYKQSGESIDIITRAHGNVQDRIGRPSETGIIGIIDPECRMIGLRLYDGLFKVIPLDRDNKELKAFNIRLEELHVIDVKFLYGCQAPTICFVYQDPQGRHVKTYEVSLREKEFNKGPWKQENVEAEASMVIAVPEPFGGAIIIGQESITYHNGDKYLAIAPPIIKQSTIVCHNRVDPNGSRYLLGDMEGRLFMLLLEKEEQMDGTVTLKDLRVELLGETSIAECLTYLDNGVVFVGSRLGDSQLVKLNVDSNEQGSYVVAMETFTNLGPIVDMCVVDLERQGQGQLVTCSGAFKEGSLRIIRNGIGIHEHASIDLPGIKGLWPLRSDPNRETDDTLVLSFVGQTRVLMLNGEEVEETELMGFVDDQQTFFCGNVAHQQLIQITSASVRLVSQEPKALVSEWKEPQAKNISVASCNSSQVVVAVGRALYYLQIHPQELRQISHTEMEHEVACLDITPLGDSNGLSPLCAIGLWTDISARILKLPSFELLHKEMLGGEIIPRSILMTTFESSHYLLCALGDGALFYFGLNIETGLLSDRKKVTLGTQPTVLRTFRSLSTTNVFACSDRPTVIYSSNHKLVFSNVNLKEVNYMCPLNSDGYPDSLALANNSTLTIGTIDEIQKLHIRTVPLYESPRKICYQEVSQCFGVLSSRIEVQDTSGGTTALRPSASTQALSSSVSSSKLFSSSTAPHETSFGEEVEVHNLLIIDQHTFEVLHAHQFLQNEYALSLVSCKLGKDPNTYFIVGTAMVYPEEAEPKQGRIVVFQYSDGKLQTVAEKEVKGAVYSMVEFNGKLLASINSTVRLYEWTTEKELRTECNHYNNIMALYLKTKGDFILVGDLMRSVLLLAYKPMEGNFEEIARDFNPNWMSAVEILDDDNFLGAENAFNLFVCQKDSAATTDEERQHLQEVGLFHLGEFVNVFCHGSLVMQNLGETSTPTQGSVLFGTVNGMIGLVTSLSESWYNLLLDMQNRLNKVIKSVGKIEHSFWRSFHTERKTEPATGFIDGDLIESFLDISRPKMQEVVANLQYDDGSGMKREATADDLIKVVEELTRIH
T3 sequence (P15170 whole entry): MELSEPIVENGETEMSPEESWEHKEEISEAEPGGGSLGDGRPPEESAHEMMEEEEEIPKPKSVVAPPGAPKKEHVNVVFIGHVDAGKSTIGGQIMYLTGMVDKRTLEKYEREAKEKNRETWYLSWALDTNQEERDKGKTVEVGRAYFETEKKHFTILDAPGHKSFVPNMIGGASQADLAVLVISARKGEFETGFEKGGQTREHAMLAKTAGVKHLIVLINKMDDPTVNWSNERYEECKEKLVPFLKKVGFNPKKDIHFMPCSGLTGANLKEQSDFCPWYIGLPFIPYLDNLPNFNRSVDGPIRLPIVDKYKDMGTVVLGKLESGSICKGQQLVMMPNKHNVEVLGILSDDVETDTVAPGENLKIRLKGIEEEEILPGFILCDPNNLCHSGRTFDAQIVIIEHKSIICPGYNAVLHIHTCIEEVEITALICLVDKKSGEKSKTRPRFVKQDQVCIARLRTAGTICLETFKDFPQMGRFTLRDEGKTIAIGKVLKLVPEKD
T3 sequence (Q96SW2 whole entry): as the sequence (Q96SW2 whole entry) above
T3 sequence (Q16531 whole entry partner): as the sequence (Q16531 whole entry partner) above
T2 sequence (Q13422 whole entry): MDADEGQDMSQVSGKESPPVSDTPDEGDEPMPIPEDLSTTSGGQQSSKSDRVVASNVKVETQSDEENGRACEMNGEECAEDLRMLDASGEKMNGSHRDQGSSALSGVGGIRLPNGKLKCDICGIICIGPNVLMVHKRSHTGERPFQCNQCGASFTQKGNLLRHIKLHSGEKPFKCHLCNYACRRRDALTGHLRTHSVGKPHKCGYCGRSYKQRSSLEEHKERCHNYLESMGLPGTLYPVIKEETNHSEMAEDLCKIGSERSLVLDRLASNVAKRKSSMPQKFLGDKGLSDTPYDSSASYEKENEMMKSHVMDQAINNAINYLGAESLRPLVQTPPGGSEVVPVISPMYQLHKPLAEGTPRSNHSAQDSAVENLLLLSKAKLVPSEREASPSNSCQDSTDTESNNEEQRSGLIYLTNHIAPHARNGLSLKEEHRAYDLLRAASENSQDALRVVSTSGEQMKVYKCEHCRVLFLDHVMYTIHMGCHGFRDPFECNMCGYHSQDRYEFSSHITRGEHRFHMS
T2 sequence (Q96SW2 whole entry): as the sequence (Q96SW2 whole entry) above
T2 sequence (Q16531 whole entry partner): as the sequence (Q16531 whole entry partner) above

Turning to `Cc1ccc(NCC(=O)NCc2csc3c2CN(C2CCC(=O)NC2=O)C3=O)cc1Cl` (centres unmarked) [Compound 5, 2-((3-chloro-4-methylphenyl)amino)-N-((5-(2,6-dioxopiperidin-3-yl)-6-oxo-5,6-dihydro-4H-thieno[2,3-c]pyrrol-3-yl)methyl)acetamide], the “CK1α % Degradation at 1 μM” value at CK1α is on record as “D (a % degradation value of equal to or more than 75% (value≥75%))”. Moreover, the viability (commonly a per cent measure of how many cells are alive, often set against a control) at 1 µM with MOLM-13 cells is under 40%. For the same compound, on IKAROS, the “IKAROS % Degradation at 1 μM” value is “D (a % degradation value of equal to or more than 75% (value≥75%))”. Besides, the fold induction (as a rule, the signal under treatment as a multiple of the control signal) at 1 µM in the assay on IL-2 was over 3. Further, the inhibition at 1 µM in the assay with IL-1β and in the assay with TNFα was over 75% each time.
As for `Cc1ccc(NCC(=O)NCc2ccc3c(c2)CN(C2CCC(=O)NC2=O)C3=O)cc1N1CCCC1` (centres unmarked) [Compound 24, N-((2-(2,6-dioxopiperidin-3-yl)-1-oxoisoindolin-5-yl)methyl)-2-((4-methyl-3-(pyrrolidin-1-yl)phenyl)amino)acetamide], the “CK1α % Degradation at 1 μM” value on CK1α was “B (a % degradation value of equal to or more than 25% and less than 50% (25%≤value<50%))”. Also, the viability at 1 µM in the assay on MOLM-13 cells is over 90%. The “IKAROS % Degradation at 1 μM” value at IKAROS is “D (a % degradation value of equal to or more than 75% (value≥75%))”. Moreover, at GSPT1, the “GSPT1 % Degradation at 1 μM” value is reported as “D (a % degradation value of equal to or more than 75% (value≥75%))”.
Consider `Cc1ccc(NCC(=O)NCc2ccc3c(c2)CN(C2CCC(=O)NC2=O)C3=O)nc1Cl` (centres unmarked) [Compound 20, 2-((6-chloro-5-methylpyridin-2-yl)amino)-N-((2-(2,6-dioxopiperidin-3-yl)-1-oxoisoindolin-5-yl)methyl)acetamide], for which the “CK1α % Degradation at 1 μM” value on CK1α was “B (a % degradation value of equal to or more than 25% and less than 50% (25%≤value<50%))”. Further, the viability at 1 µM in the assay on MOLM-13 cells is over 90%. The “IKAROS % Degradation at 1 μM” value on IKAROS is “B (a % degradation value of equal to or more than 25% and less than 50% (25%≤value<50%))”. Also, the results for the inhibition at 1 µM in the assay with IL-1β and with TNFα were under 30% and 30 to 50%, respectively. The “GSPT1 % Degradation at 1 μM” value at GSPT1 is “B (a % degradation value of equal to or more than 25% and less than 50% (25%≤value<50%))”.
In the case of `Cc1cc(NCC(=O)NCc2ccc3c(c2)CN(C2CCC(=O)NC2=O)C3=O)ccc1N(C)C` (centres unmarked) [Compound 25, 2-((4-(dimethylamino)-3-methylphenyl)amino)-N-((2-(2,6-dioxopiperidin-3-yl)-1-oxoisoindolin-5-yl)methyl)acetamide], the “CK1α % Degradation at 1 μM” value at CK1α is “B (a % degradation value of equal to or more than 25% and less than 50% (25%≤value<50%))”. Also, the fold induction at 1 µM with IL-2 lay in the range of 1 to 2. Moreover, the inhibition (commonly the percentage by which the read-out fell short of the control) at 1 µM with IL-1β is under 30%; with TNFα, 30 to 50%. In addition, the “GSPT1 % Degradation at 1 μM” value on GSPT1 was “C (a % degradation value of equal to or more than 50% and less than 75% (50%≤value<75%))”.
Take `CN(C)Cc1ccc(NCC(=O)NCc2ccc3c(c2)CN(C2CCC(=O)NC2=O)C3=O)cc1Cl` (centres unmarked) [Compound 26]: the “CK1α % Degradation at 1 μM” value at CK1α was “C (a % degradation value of equal to or more than 50% and less than 75% (50%≤value<75%))”. Also, the “GSPT1 % Degradation at 1 μM” value at GSPT1 is “C (a % degradation value of equal to or more than 50% and less than 75% (50%≤value<75%))”.
For the compound `Cc1cc(NCC(=O)NCc2scc3c2CN(C2CCC(=O)NC2=O)C3=O)ccc1N(C)C` (centres unmarked) [Compound 10, 2-((4-(dimethylamino)-3-methylphenyl)amino)-N-((5-(2,6-dioxopiperidin-3-yl)-4-oxo-5,6-dihydro-4H-thieno[3,4-c]pyrrol-1-yl)methyl)acetamide], the “CK1α % Degradation at 1 μM” value on CK1α is “B (a % degradation value of equal to or more than 25% and less than 50% (25%≤value<50%))”. This compound showed a viability at 1 µM with MOLM-13 cells of over 90%. Besides, the “IKAROS % Degradation at 1 μM” value on IKAROS was “A (a % degradation value of less than 25% (value<25%))”. Besides, the “GSPT1 % Degradation at 1 μM” value on GSPT1 was “D (a % degradation value of equal to or more than 75% (value≥75%))”.
`Cc1ccc(NCC(=O)NCc2cccc3c2CN(C2CCC(=O)NC2=O)C3=O)cc1Cl` (centres unmarked) [Compound 14, 2-((3-chloro-4-methylphenyl)amino)-N-((2-(2,6-dioxopiperidin-3-yl)-1-oxoisoindolin-4-yl)methyl)acetamide]: the “CK1α % Degradation at 1 μM” value on CK1α was “C (a % degradation value of equal to or more than 50% and less than 75% (50%≤value<75%))”. In addition, the viability at 1 µM with MOLM-13 cells fell in the range of 40 to 60%. Moreover, on IKAROS, the “IKAROS % Degradation at 1 μM” value is “D (a % degradation value of equal to or more than 75% (value≥75%))”. Also, the fold induction at 1 µM with IL-2 was in the range of 2 to 3. The inhibition at 1 µM in the assay on IL-1β is over 75%; in the assay with TNFα, 50 to 75%. For the same compound, the “GSPT1 % Degradation at 1 μM” value on GSPT1 was “C (a % degradation value of equal to or more than 50% and less than 75% (50%≤value<75%))”.
Consider `Cc1cc(NCC(=O)NCc2ccc3c(c2)CN(C2CCC(=O)NC2=O)C3=O)ccc1N1CCCC1` (centres unmarked) [Compound 21, N-((2-(2,6-dioxopiperidin-3-yl)-1-oxoisoindolin-5-yl)methyl)-2-((3-methyl-4-(pyrrolidin-1-yl)phenyl)amino)acetamide], for which the “CK1α % Degradation at 1 μM” value at CK1α is “A (a % degradation value of less than 25% (value<25%))”. This compound came in with a viability at 1 µM with MOLM-13 cells of under 40%. For the same compound, at IKAROS, the “IKAROS % Degradation at 1 μM” value is “C (a % degradation value of equal to or more than 50% and less than 75% (50%≤value<75%))”. In the assay on IL-2, the fold induction at 1 µM lay within 1 to 2. Also, the inhibition at 1 µM in the assay with IL-1β was under 30%; with TNFα, 30 to 50%. For the same compound, the “GSPT1 % Degradation at 1 μM” value on GSPT1 is “C (a % degradation value of equal to or more than 50% and less than 75% (50%≤value<75%))”.

Source of the values: US11400084B2 (BioTheryX, Inc., priority 2018, dated 2022).
